{"source": "patent US10322143B2", "about": "“Inhibitors of ADAMTS4 or ADAMTS5 for use in preventing or treating cardiac remodeling and chronic heart failure” (Universitetet i Oslo, priority 2013, dated 2019)", "key": {"aortic banding rats": {"test_system": "aortic banding rats", "experiment": "Aortic banding rat model: echocardiography and organ weights after PPS-treatment", "type": "in vivo", "conditions": "for Aorta / FS (fractional shortening) / Heart wt / IVSd (interventricular septal thickness at diastole) / LAD (left atrial diameter) / LV wt / LVDd (left ventricular diameter at diastole) / LVDs (left ventricular diameter at systole) / Lung wt / PWd (posterior wall thickness at diastole) / RV wt / Tissue Doppler Maximal velocity / Tissue Doppler Minimal velocity / HR (heart rate): PPS 6 mg/kg s.c. every third day, mean ± SEM; for HR (heart rate): in bpm (unit assumed)", "text": "The experimental procedures conformed to the European Convention for the Protection of Vertebrate Animals Used for Experimental and Other Scientific Purposes, and the protocols were approved by the Norwegian Council for Animal Research. Male Wistar rats weighing 160-170 g underwent AB essentially as described previously (Lunde et al. Physiol Genomics 2011. 44(2):162-72). Briefly, the ascending aorta was dissected free through a right hemithoracotomy, and ligated (3-0 silk) against a steel wire. The sham-operated rats (sham) were subjected to the same surgical procedure with a loose suture around the aorta. In all surgical procedures performed, a mixture of 67% N2O, 28% O2, and 4% isoflurane in an anaesthesia chamber was used for preoperative sedation. To maintain anaesthesia preoperatively, a mixture of 69% N2O, 29% O2, and 2% isoflurane was given by the endotracheal tube and the animals were ventilated on a respirator (Zoovent, Triumph Technical Services, Milton Keynes, UK). Buprenorphine was given as postoperative analgesia after AB.\nIn vivo heart function was evaluated using the Vevo2100 system (Visualsonics Inc, Canada) as previously described (Sjaastad et al. J Appl Physiol 2000; 89:1445-54). Thereafter, the heart was excised under deep anaesthesia, washed in saline and blotted dry to remove blood in the cardiac chambers. The heart chambers were separated by rapid dissection, before being snap-frozen in liquid nitrogen and stored at −70° C. until further analyses. For AB rats not receiving PPS- or vehicle treatment, selection into heart failure (ABHF) or hypertrophy (ABHT) groups was based on echocardiographic and postmortem analysis, as follows: Inclusion criteria for ABHF group were increased lung weight (>2.5 g), increased posterior wall diameter in diastole (PWDd) (>2.0 mm) and increased left atrial diameter (>5.0 mm), while criteria for inclusion in the ABHT group were increased PWDd (>2.0 mm), increased left ventricular weight (>0.75 g) and preserved lung weight (<2.0 g).\n(§1) Three days after AB, rats were stratified by the gradient over the stenosis to ensure similar degree of cardiac stress. Two and two stratified rats were randomized to either 6 mg/kg of the sulfated polysaccharide sodium pentosan polysulfate (PPS) (Interfarm AS, Norway) or vehicle (0.9% NaCl) injected subcutaneously every third day. […] Six weeks after AB or sham operation, the rats were examined by echocardiography and postmortem analysis, performed by experienced investigators (IS, JMA) blinded to treatment group."}, "ADAMTS4 [1]": {"molecular_target": "ADAMTS4 (Homo sapiens (Human), UniProt O75173)", "sequence (O75173 213-837, species assumed)": "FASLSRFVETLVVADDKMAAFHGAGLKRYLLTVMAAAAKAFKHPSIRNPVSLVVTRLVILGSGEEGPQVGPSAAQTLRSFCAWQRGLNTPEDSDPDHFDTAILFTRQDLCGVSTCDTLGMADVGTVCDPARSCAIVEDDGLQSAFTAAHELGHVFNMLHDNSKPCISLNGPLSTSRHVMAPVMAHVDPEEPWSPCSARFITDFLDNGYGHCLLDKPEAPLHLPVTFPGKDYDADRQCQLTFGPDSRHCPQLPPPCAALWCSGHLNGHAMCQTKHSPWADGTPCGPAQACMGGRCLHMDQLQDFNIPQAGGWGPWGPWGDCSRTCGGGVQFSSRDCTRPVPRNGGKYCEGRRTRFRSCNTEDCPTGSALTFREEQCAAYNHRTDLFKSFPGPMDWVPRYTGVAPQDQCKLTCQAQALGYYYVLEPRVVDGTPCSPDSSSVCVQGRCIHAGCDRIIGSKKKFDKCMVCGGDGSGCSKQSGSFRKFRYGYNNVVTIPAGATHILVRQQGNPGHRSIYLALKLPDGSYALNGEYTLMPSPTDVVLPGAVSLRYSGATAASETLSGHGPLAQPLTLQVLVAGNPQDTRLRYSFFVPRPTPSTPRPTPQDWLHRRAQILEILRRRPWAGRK", "conditions": "previous studies; cited from earlier work"}, "ADAMTS4 [2]": {"molecular_target": "ADAMTS4 (Rattus norvegicus (Rat), UniProt Q9ESP7)", "experiment": "ADAMTS4 protein level in myocardial protein fractions (immunoblotting), aortic banding rats", "type": "in vivo", "conditions": "AB-rats after PPS-treatment", "protocol": "as §1\nProteins from rat myocardium were extracted as previously described (Didangelos et al. J Biol Chem 2012. 287(23):19341-5). […]\nProtein concentrations were measured using the Micro BCA Protein Assay Kit (Pierce/Thermo Scientific, IL). […]\nMembranes were blocked in 5% non-fat dry-milk (170-6404, BioRad) overnight. […] Primary antibodies used were against ADAMTS4 (PA1-1750, Thermo Pierce Scientific, IL), versican full length (sc-25831, Santa Cruz Biotechnology, CA) and versican fragments displaying the neo-epitope DPEEAE (ab19345, Abcam, Cambrigde, UK) resulting from ADAMTS cleavage by ADAMTS1/4 (Sandy J D et al. J Biol Chem 2001. 276(16):13372-8; Didangelos A et al. supra), and quantified by ImageJ."}, "[3]": {"conditions": "PPS-treated vs vehicle-treated AB-rats"}, "[4]": {"conditions": "aortic banding rats, six weeks after AB"}}}
{"substance": "pentosan polysulfate [PPS]", "values": [{"measurement": "side effects including haemorrhage", "setting": "aortic banding rats; AB rats, 6 mg/kg s.c. every third day, observed at daily basis", "result": "no side effects"}, {"measurement": "lung weight compared to vehicle", "setting": "aortic banding rats; PPS-treated AB-rats", "result": "tendency towards lower"}, {"measurement": "higher fractional shortening compared to vehicle-treated AB-rats", "setting": "aortic banding rats; [3]", "result": 23, "unit": "%"}, {"measurement": "left ventricular diameter in systole as part of the diameter in vehicle-treated AB-rats", "setting": "aortic banding rats; [3]", "result": "three quarters"}, {"measurement": "Aorta", "setting": "aortic banding rats; [4]", "result": "2.56 ± 0.03", "unit": "mm"}, {"measurement": "FS (fractional shortening)", "setting": "aortic banding rats; [4]", "result": "59.2 ± 1.5", "unit": "%"}, {"measurement": "Heart wt", "setting": "aortic banding rats; [4]", "result": "1.87 ± 0.09", "unit": "g"}, {"measurement": "IVSd (interventricular septal thickness at diastole)", "setting": "aortic banding rats; [4]", "result": "2.11 ± 0.06", "unit": "mm"}, {"measurement": "LAD (left atrial diameter)", "setting": "aortic banding rats; [4]", "result": "4.18 ± 0.14", "unit": "mm"}, {"measurement": "LV wt", "setting": "aortic banding rats; [4]", "result": "0.95 ± 0.07", "unit": "g"}, {"measurement": "LVDd (left ventricular diameter at diastole)", "setting": "aortic banding rats; [4]", "result": "6.53 ± 0.13", "unit": "mm"}, {"measurement": "LVDs (left ventricular diameter at systole)", "setting": "aortic banding rats; [4]", "result": "2.67 ± 0.12", "unit": "mm"}, {"measurement": "Lung wt", "setting": "aortic banding rats; [4]", "result": "1.64 ± 0.08", "unit": "g"}, {"measurement": "PWd (posterior wall thickness at diastole)", "setting": "aortic banding rats; [4]", "result": "2.13 ± 0.06", "unit": "mm"}, {"measurement": "RV wt", "setting": "aortic banding rats; [4]", "result": "0.18 ± 0.01", "unit": "g"}, {"measurement": "Tissue Doppler Maximal velocity", "setting": "aortic banding rats; [4]", "result": "50.70 ± 2.94"}, {"measurement": "Tissue Doppler Minimal velocity", "setting": "aortic banding rats; [4]", "result": "59.06 ± 3.26"}, {"measurement": "HR (heart rate)", "setting": "aortic banding rats; [4]", "result": "420 ± 6"}, {"measurement": "Aorta", "setting": "aortic banding rats; sham-operated rats, six weeks", "result": "2.63 ± 0.04", "unit": "mm"}, {"measurement": "FS (fractional shortening)", "setting": "aortic banding rats; sham-operated rats, six weeks", "result": "53.6 ± 5.8", "unit": "%"}, {"measurement": "Heart wt", "setting": "aortic banding rats; sham-operated rats, six weeks", "result": "1.19 ± 0.11", "unit": "g"}, {"measurement": "IVSd (interventricular septal thickness at diastole)", "setting": "aortic banding rats; sham-operated rats, six weeks", "result": "1.56 ± 0.04", "unit": "mm"}, {"measurement": "LAD (left atrial diameter)", "setting": "aortic banding rats; sham-operated rats, six weeks", "result": "3.68 ± 0.14", "unit": "mm"}, {"measurement": "LV wt", "setting": "aortic banding rats; sham-operated rats, six weeks", "result": "0.70 ± 0.03", "unit": "g"}, {"measurement": "LVDd (left ventricular diameter at diastole)", "setting": "aortic banding rats; sham-operated rats, six weeks", "result": "6.89 ± 0.10", "unit": "mm"}, {"measurement": "LVDs (left ventricular diameter at systole)", "setting": "aortic banding rats; sham-operated rats, six weeks", "result": "3.20 ± 0.41", "unit": "mm"}, {"measurement": "Lung wt", "setting": "aortic banding rats; sham-operated rats, six weeks", "result": "1.41 ± 0.03", "unit": "g"}, {"measurement": "PWd (posterior wall thickness at diastole)", "setting": "aortic banding rats; sham-operated rats, six weeks", "result": "1.68 ± 0.08", "unit": "mm"}, {"measurement": "RV wt", "setting": "aortic banding rats; sham-operated rats, six weeks", "result": "0.17 ± 0.01", "unit": "g"}, {"measurement": "Tissue Doppler Maximal velocity", "setting": "aortic banding rats; sham-operated rats, six weeks", "result": "72.9 ± 8.6"}, {"measurement": "Tissue Doppler Minimal velocity", "setting": "aortic banding rats; sham-operated rats, six weeks", "result": "82.4 ± 6.1"}, {"measurement": "HR (heart rate)", "setting": "aortic banding rats; sham-operated rats, six weeks", "result": "412 ± 11"}, {"measurement": "aggrecanase activity of ADAMTS4", "setting": "ADAMTS4 [1]", "result": "inhibits"}, {"measurement": "level of ADAMTS4 in the protein fractions", "setting": "ADAMTS4 [2]", "result": "not altered"}]}
